# Values of other authors as cited in patent publication US7294691B1, “Soluble secreted α2δ-2calcium channel subunit polypeptide” (Warner Lambert Company, priority 2000, dated 2007).
# Test system: [^3H]gabapentin binding site
# Settings: saturation binding in the presence of L-leucine; reduces [^3H]gabapentin binding affinity
smiles,measurement,value
CC(C)C[C@H](N)C(=O)O [L-Leucine],interaction with the [^3H]gabapentin binding site,competitive interaction
